Experimental data from patent US11412771B2, “Composition to improve athletic performance by supporting muscle protein synthesis and mental focus” (The Amino Company LLC, priority 2019, dated 2022).
Where two headings read alike, the source gives them in different places.

Assays:
[1] = assay type: in vivo, human
Description: FIG. 2 depicts a graph showing leucine, lysine, and phenylalanine oxidation in human subjects at rest and during prolonged aerobic exercise (approximately 30% VO2 max for 105 minutes). Error bars represent standard error of mean (SE) assessed via ANOVA.
EXAMPLE 2. […] 1982, 52(2):458-66 and Wolfe et al., J APPL PHYSIOL RESPIR ENVIRON EXERC PHYSIOL. 1984, 56(1):221-9, both the disclosures of which are herein incorporated by reference in their entirety. Total leucine oxidation increased from 0.38±0.05 to 1.41±0.14 μmol·kg^−1·min^−1 during exercise due to increases in the oxidation of plasma leucine (150%) and intracellular leucine (600%) (FIG. 2). […] These findings provided a rational for providing extra leucine, as well as other branched chain amino acids, before exercise.

[2] = test system: nitric oxide (NO) synthesis; experiment: In vivo kinetics of nitric oxide (NO) metabolism after citrulline ingestion (stable isotope tracer); parameters: species or system human; conditions: 3 grams; for NO synthesis rate after citrulline ingestion: after 3 hours; for De novo arginine synthesis after citrulline ingestion: over 3 hours
Description: FIGS. 6A-B depicts graphs showing plasma arginine concentration (FIG. 6A) and nitric oxide (NO) synthesis (FIG. 6B) in human subjects over 3 hours following citrulline ingestion (3 grams) wherein the subjects were either elderly (n=8, 77±9 years of age, 93±4 kg) or young individuals (n=8, 27±9 years of age, 70±5 kg).
EXAMPLE 5. A kinetic study with a stable isotope tracer method was performed to determine in vivo kinetics of nitric oxide (NO) metabolism in relation to citrulline ingestion in older adult humans (n=8, 77±9 years, 93±4 kg) and in young adult humans (n=8, 27±9 years, 70±5 kg). In the fasted state, NO synthesis (expressed per kg fat free mass) was ˜50% lower in older vs. young adults and was related to a decreased rate of appearance of the NO precursor arginine. Citrulline ingestion (3 grams) stimulated de novo arginine synthesis in both older (6.88±0.83 to 35.40±4.90 μmol·kg body wt^−1·h^−1) and, to a greater extent, in young adults (12.02±1.01 to 66.26±4.79 μmol·kg body wt^−1 h^−1) over 3 hours (FIG. 6A). NO synthesis rate increased correspondingly in older (0.17±0.01 to 2.12±0.36 μmol·kg body wt^−1·h^−1) and, to a greater extent, in young adults (0.36±0.04 to 3.57±0.47 μmol·kg body wt^−1·h^−1) after 3 hours (FIG. 6B). […] Because arginine can play a role in stimulating muscle protein synthesis as well as increasing blood flow via NO synthesis, the data strongly support citrulline ingestion for acute as well as long-term promotion of muscle function.

CC(C)C[C@H](N)C(=O)O [leucine]
Total leucine oxidation ([1]; human, in vivo): 0.38 ± 0.05 µmol/kg/min | Increase in the oxidation of intracellular leucine ([1]; human, in vivo, 105 min): 600% | Increase in the oxidation of plasma leucine ([1]; human, in vivo, 105 min): 150% | Total leucine oxidation ([1]; human, in vivo, 105 min): 1.41 ± 0.14 µmol/kg/min | Plasma leucine flux ([1]; not told): decreased slightly, but not significantly

NC(=O)NCCC[C@H](N)C(=O)O [Citrulline, citrulline]
NO synthesis rate after citrulline ingestion ([2]; older adults, basal 0.17±0.01): 2.12±0.36 μmol·kg body wt^−1·h^−1 | De novo arginine synthesis after citrulline ingestion ([2]; older adults, basal 6.88±0.83): 35.40±4.90 μmol·kg body wt^−1·h^−1 | NO synthesis rate after citrulline ingestion ([2]; young adults, basal 0.36±0.04): 3.57±0.47 μmol·kg body wt^−1·h^−1 | De novo arginine synthesis after citrulline ingestion ([2]; young adults, basal 12.02±1.01): 66.26±4.79 μmol·kg body wt^−1 h^−1

N[C@@H](Cc1ccccc1)C(=O)O [phenylalanine]
Oxidation, change from rest to exercise ([1]; in vivo): did not change significantly

NCCCC[C@H](N)C(=O)O [lysine]
Oxidation, change from rest to exercise ([1]; in vivo): did not change significantly
